From ChEMBL document CHEMBL1132027, “Trifluoromethyl ketone inhibitors of fatty acid amide hydrolase: a probe of structural and conformational features contributing to inhibition” (Bioorg Med Chem Lett, 1999)

What was measured:
[1] = target: T1, Fatty-acid amide hydrolase 1 (Rattus norvegicus, UniProt P97612); experiment: Inhibitory constant against Fatty-acid amide hydrolase (FAAH) in rat liver; assay type: tissue-based
T1 sequence (P97612 whole entry): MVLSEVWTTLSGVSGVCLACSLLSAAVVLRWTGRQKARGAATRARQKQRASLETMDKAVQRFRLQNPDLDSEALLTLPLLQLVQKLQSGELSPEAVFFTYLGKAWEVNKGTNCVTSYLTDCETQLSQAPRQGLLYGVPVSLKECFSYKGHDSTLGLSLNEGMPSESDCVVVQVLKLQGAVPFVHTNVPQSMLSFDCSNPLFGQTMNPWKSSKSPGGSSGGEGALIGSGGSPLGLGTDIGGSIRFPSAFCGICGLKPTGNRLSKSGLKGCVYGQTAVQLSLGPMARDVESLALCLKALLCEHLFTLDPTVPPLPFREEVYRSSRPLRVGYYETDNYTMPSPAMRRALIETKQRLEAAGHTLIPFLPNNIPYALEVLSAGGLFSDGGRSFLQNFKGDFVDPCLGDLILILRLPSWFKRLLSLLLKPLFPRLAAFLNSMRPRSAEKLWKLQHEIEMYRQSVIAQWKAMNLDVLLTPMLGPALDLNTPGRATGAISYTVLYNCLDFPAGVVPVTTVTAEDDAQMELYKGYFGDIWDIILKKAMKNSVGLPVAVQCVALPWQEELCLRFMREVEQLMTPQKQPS

[2] = target: T1, Fatty-acid amide hydrolase 1; experiment: Inhibitory concentration against Fatty-acid amide hydrolase (FAAH) in rat liver

SMILES | Ki [1] [µM] | IC50 [2] [µM]
CCc1cc2cc3ccccc3cc2cc1CC(=O)C(F)(F)F | > 100 | > 100
CCCCOC[C@@H]1CC=CC[C@H]1COCCCC(=O)C(F)(F)F | 0.44 | 2.4
CCCCCCCC/C=C/CCCCCCCC(=O)C(F)(F)F | 0.17 | 0.78
CCCCCCc1cccc(CCCCCCC(=O)C(F)(F)F)c1 | 0.14 | 0.76
O=C(CCCCCc1ccccc1)C(F)(F)F | 0.17 | 0.84
CCCCOC[C@@H]1CCCC[C@H]1COCCCC(=O)C(F)(F)F | 1.2 | 9.7
CCCCCCCC/C=C\CCCCCCCC(=O)C(F)(F)F | 0.082 | 0.46
CCCCCCCCc1ccccc1CCCCCCCC(=O)C(F)(F)F | 0.32 | 2.5
CCCCCCCCCCCCCC(=O)C(F)(F)F | 0.49 | 2.3
CCCCCCCCCCCCCCCCCC(=O)C(F)(F)F | 0.24 | 1.2
CCCCCCCCCC(=O)C(F)(F)F | 0.13 | 0.6
CCCCCCCCCCCC(=O)C(F)(F)F | 0.14 | 0.13
CCCCCCC(=O)C(F)(F)F | 10.7 | 52.8
CCCCc1cc2ccccc2cc1CCCC(=O)C(F)(F)F | 4.4 | 30.1
CCCCCCCc1ccc(CCCCCCC(=O)C(F)(F)F)cc1 | 0.096 | 0.59
CCCCOC[C@H]1CC=CC[C@H]1COCCCC(=O)C(F)(F)F | 0.57 | 3
O=C(CCCCCCc1ccccc1)C(F)(F)F | 0.1 | 0.45
O=C(CCCCCCCc1ccccc1)C(F)(F)F | 0.025 | 0.12
CCCCCCc1ccccc1CCCCCC(=O)C(F)(F)F | 2.8 | 13.1
CCCCCCCC/C=C\CCCCCCCC(C)=O | > 100 | > 100
CCCCCC(=O)C(F)(F)F | 26.9 | 185
CCCCCCCC(=O)C(F)(F)F | 1.2 | 6.6
CCCCOC[C@H]1CCCC[C@H]1COCCCC(=O)C(F)(F)F | 0.78 | 5.7
